From patent publication US20230081426A1, “COMPOUNDS AND METHODS FOR KRAS MODULATION AND INDICATIONS THEREFOR” (Plexxikon Inc., priority 2020, published 2023) come the findings set out here.

Experiment [1] addresses T1, G12V-mutant human KRAS (amino acid residues 1-188) (Homo sapiens, UniProt P01116, G12V).
T1 construct: G12V-mutant human KRAS (amino acid residues 1-188) with FLAG tag was purified from E. coli; made in house; host or cells: E. coli
Put plainly: KRAS Binding Competition Assay (AlphaScreen; biotinylated KRpep-2d analogue), G12V. To be noted: geometric mean, read-out: KRAS GMean IC50 (uM) MUTATION: G12V. (Bead proximity is the source of the signal in Alpha formats.)

In experiment [2] the target is T2, G12D-mutant human KRAS (amino acid residues 1-188) (Homo sapiens, UniProt P01116, G12D).
T2 construct: G12D or G12C-mutant human KRAS (amino acid residues 1-188) with FLAG tag; made in house; host or cells: E. coli
Put plainly: KRAS Binding Disruption Assay (AlphaScreen; biotinylated KRpep-2d analogue or RAF1-RBD), G12D. To be noted: KRAS G12D; geometric mean; read-out: KRAS GMean IC50 (uM) MUTATION: G12D. The gist of the method: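 Displacement format with mutant KRAS, biotinylated KRpep-2d analogue or RAF1-RBD (5-20 nM each) at pH 7.5 with 5 mM MgCl2.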

Structures are written as SMILES.

Regarding `CN1CCC[C@H]1COc1nc(N2[C@@H]3CC[C@H]2CNC3)c2ccc(-c3c(O)ccc4ccccc34)cc2n1` [P-0259, 1-(4-((1R,5S)-3,8-diazabicyclo[3.2.1]octan-8-yl)-2-(((S)-1-methylpyrrolidin-2-yl)methoxy)quinazolin-7-yl)naphthalen-2-ol], the results for the IC50 in experiment [1] and in experiment [2] were 10 to 100 µM and 0.0001 to 10 µM, respectively.
The matching figures for `CN1CCC[C@H]1COc1nc(N2[C@@H]3CC[C@H]2CNC3)c2ccc(-c3cncc(Br)c3Cl)cc2n1` [P-0260, 4-((1R,5S)-3,8-diazabicyclo[3.2.1]octan-8-yl)-7-(5-bromo-4-chloropyridin-3-yl)-2-(((S)-1-methylpyrrolidin-2-yl)methoxy)quinazoline]: 10 to 100 µM and 10 to 100 µM.
The matching figures for `Cc1ccnc(-c2ccc3c(N4[C@@H]5CC[C@H]4CNC5)nc(OC[C@@H]4CCCN4C)nc3c2)c1C` [P-0261, 4-((1R,5S)-3,8-diazabicyclo[3.2.1]octan-8-yl)-7-(3,4-dimethylpyridin-2-yl)-2-(((S)-1-methylpyrrolidin-2-yl)methoxy)quinazoline]: 100 to 1000 µM and 100 to 1000 µM.
Taken in the same sequence, the figures for `CN1CCC[C@H]1COc1nc(N2[C@@H]3CC[C@H]2CNC3)c2ccc(-c3cc(O)cc4cccnc34)cc2n1` [P-0262, 8-(4-((1R,5S)-3,8-diazabicyclo[3.2.1]octan-8-yl)-2-(((S)-1-methylpyrrolidin-2-yl)methoxy)quinazolin-7-yl)quinolin-6-ol] were 10 to 100 µM and 10 to 100 µM.
For `CN1CCC[C@H]1COc1nc(N2[C@@H]3CC[C@H]2CNC3)c2ccc(-c3cc([N+](=O)[O-])cc4ccccc34)cc2n1` [P-0263, 4-((1R,5S)-3,8-diazabicyclo[3.2.1]octan-8-yl)-2-(((S)-1-methylpyrrolidin-2-yl)methoxy)-7-(3-nitronaphthalen-1-yl)quinazoline], the IC50 in experiment [1] and in experiment [2] was 10 to 100 µM throughout.
Consider `CN1CCC[C@H]1COc1nc(N2[C@@H]3CC[C@H]2CNC3)c2ccc(-c3c(Cl)cccc3Cl)cc2n1` [P-0264, 4-((1R,5S)-3,8-diazabicyclo[3.2.1]octan-8-yl)-7-(2,6-dichlorophenyl)-2-(((S)-1-methylpyrrolidin-2-yl)methoxy)quinazoline], for which the IC50 in experiment [1] and in experiment [2] was 10 to 100 µM throughout.
With `CN1CCC[C@H]1COc1nc(N2[C@@H]3CC[C@H]2CNC3)c2ccc(-c3cc(N)cc4ccccc34)cc2n1` [P-0265, 4-(4-((1R,5S)-3,8-diazabicyclo[3.2.1]octan-8-yl)-2-(((S)-1-methylpyrrolidin-2-yl)methoxy)quinazolin-7-yl)naphthalen-2-amine], the IC50 in experiment [1] and in experiment [2] was 0.0001 to 10 µM in each case.
Take `CN1CCC[C@H]1COc1nc(N2[C@@H]3CC[C@H]2CN(C(=O)NC2CCN(C4CCCCC4)C2)C3)c2ccc(-c3cc(O)cc4ccccc34)cc2n1` (stereo partly drawn) [P-0266, (1R,5S)-N-(1-cyclohexylpyrrolidin-3-yl)-8-(7-(3-hydroxynaphthalen-1-yl)-2-(((S)-1-methylpyrrolidin-2-yl)methoxy)quinazolin-4-yl)-3,8-diazabicyclo[3.2.1]octane-3-carboxamide]: the IC50 in experiment [1] and in experiment [2] was 10 to 100 µM throughout.
`CN1CCC[C@H]1COc1nc(N2[C@@H]3CC[C@H]2CN(C(=O)CCCN2CCOCC2)C3)c2ccc(-c3cc(O)cc4ccccc34)cc2n1` [P-0267, 1-((1R,5S)-8-(7-(3-hydroxynaphthalen-1-yl)-2-(((S)-1-methylpyrrolidin-2-yl)methoxy)quinazolin-4-yl)-3,8-diazabicyclo[3.2.1]octan-3-yl)-4-morpholinobutan-1-one]: the IC50 in experiment [1] and in experiment [2] was 10 to 100 µM throughout.
On to `CN1CCC[C@H]1COc1nc(N2[C@@H]3CC[C@H]2CN(c2cnccn2)C3)c2ccc(-c3cc(O)cc4ccccc34)cc2n1` [P-0268, 4-(2-(((S)-1-methylpyrrolidin-2-yl)methoxy)-4-((1R,5S)-3-(pyrazin-2-yl)-3,8-diazabicyclo[3.2.1]octan-8-yl)quinazolin-7-yl)naphthalen-2-ol], for which the IC50 in experiment [1] and in experiment [2] was 10 to 100 µM each time.
